Measured values from ChEMBL document CHEMBL1201862, “PubChem BioAssay data set” (2004).
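Cells were grown in 96-well plates and exposed to each compound for 48 hours at five concentrations; endpoints were interpolated linearly between bracketing concentrations, or set to the highest concentration if not reached. GI50 is the concentration that inhibits growth by half.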 Active and inactive are the calls of the source. No stated cut-off is given here; in the data, active = GI50 up to about 1.1 µM and inactive = higher.

Assays:
Assay in all cases: DTP human tumour cell line panel, 48 h
786-0 = system: 786-0
A498 = system: A498
A549 = system: A549
ACHN = system: ACHN
BT-549 = system: BT-549
CAKI-1 = system: CAKI-1
CCRF-CEM = system: CCRF-CEM
COLO 205 = system: COLO 205
DU-145 = system: DU-145
EKVX = system: EKVX
HCT-116 = system: HCT-116
HL-60 = system: HL-60
HOP-62 = system: HOP-62
HOP-92 = system: HOP-92
HT-29 = system: HT-29
Hs-578T = system: Hs-578T
IGROV-1 = system: IGROV-1
K562 = system: K562
KM12 = system: KM12
MCF7 = system: MCF7
MDA-MB-231 = system: MDA-MB-231
MDA-MB-435 = system: MDA-MB-435
MDA-N = system: MDA-N
MOLT-4 = system: MOLT-4
Malme-3M = system: Malme-3M
NCI-H226 = system: NCI-H226
NCI-H23 = system: NCI-H23
NCI-H522 = system: NCI-H522
NCI/ADR-RES = system: NCI/ADR-RES
OVCAR-3 = system: OVCAR-3
OVCAR-4 = system: OVCAR-4
OVCAR-8 = system: OVCAR-8
SF-268 = system: SF-268
SF-295 = system: SF-295
SF-539 = system: SF-539
SK-MEL-28 = system: SK-MEL-28
SK-MEL-2 = system: SK-MEL-2
SK-MEL-5 = system: SK-MEL-5
SK-OV-3 = system: SK-OV-3
SN12C = system: SN12C
SNB-19 = system: SNB-19
SR = system: SR
SW-620 = system: SW-620
T47D = system: T47D
TK-10 = system: TK-10
U-251 = system: U-251
UACC-257 = system: UACC-257
UACC-62 = system: UACC-62
UO-31 = system: UO-31
HCT-15 = system: HCT-15
LOX IMVI = system: LOX IMVI
M14 = system: M14
OVCAR-5 = system: OVCAR-5
PC-3 = system: PC-3
RPMI-8226 = system: RPMI-8226
RXF 393 = system: RXF 393
SNB-75 = system: SNB-75
HCC 2998 = system: HCC 2998

CCc1n[nH]c(=O)n1O
GI50 (786-0): > 100 µM (inactive) | GI50 (A498): > 100 µM (inactive) | GI50 (A549): > 100 µM (inactive) | GI50 (ACHN): > 100 µM (inactive) | GI50 (BT-549): > 100 µM (inactive) | GI50 (CAKI-1): > 100 µM (inactive) | GI50 (CCRF-CEM): > 100 µM (inactive) | GI50 (COLO 205): > 100 µM (inactive) | GI50 (DU-145): > 100 µM (inactive) | GI50 (EKVX): > 100 µM (inactive) | GI50 (HCT-116): > 100 µM (inactive) | GI50 (HL-60): > 100 µM (inactive) | GI50 (HOP-62): > 100 µM (inactive) | GI50 (HOP-92): 0.0738 µM (active) | GI50 (HT-29): > 100 µM (inactive) | GI50 (Hs-578T): > 100 µM (inactive) | GI50 (IGROV-1): > 100 µM (inactive) | GI50 (K562): > 100 µM (inactive) | GI50 (KM12): > 100 µM (inactive) | GI50 (MCF7): > 100 µM (inactive) | GI50 (MDA-MB-231): > 100 µM (inactive) | GI50 (MDA-MB-435): > 100 µM (inactive) | GI50 (MDA-N): > 100 µM (inactive) | GI50 (MOLT-4): > 100 µM (inactive) | GI50 (Malme-3M): > 100 µM (inactive) | GI50 (NCI-H226): > 100 µM (inactive) | GI50 (NCI-H23): > 100 µM (inactive) | GI50 (NCI-H522): > 100 µM (inactive) | GI50 (NCI/ADR-RES): > 100 µM (inactive) | GI50 (OVCAR-3): > 100 µM (inactive) | GI50 (OVCAR-4): > 100 µM (inactive) | GI50 (OVCAR-8): > 100 µM (inactive) | GI50 (SF-268): > 100 µM (inactive) | GI50 (SF-295): > 100 µM (inactive) | GI50 (SF-539): > 100 µM (inactive) | GI50 (SK-MEL-28): > 100 µM (inactive) | GI50 (SK-MEL-2): > 100 µM (inactive) | GI50 (SK-MEL-5): > 100 µM (inactive) | GI50 (SK-OV-3): > 100 µM (inactive) | GI50 (SN12C): > 100 µM (inactive) | GI50 (SNB-19): > 100 µM (inactive) | GI50 (SR): > 100 µM (inactive) | GI50 (SW-620): > 100 µM (inactive) | GI50 (T47D): > 100 µM (inactive) | GI50 (TK-10): > 100 µM (inactive) | GI50 (U-251): > 100 µM (inactive) | GI50 (UACC-257): > 100 µM (inactive) | GI50 (UACC-62): > 100 µM (inactive) | GI50 (UO-31): > 100 µM (inactive)

Oc1c(/N=N\c2ccccc2)c2cccc3ccc4cccc1c4c32
GI50 (786-0): 43.7 µM (inactive) | GI50 (A498): > 100 µM (inactive) | GI50 (A549): > 100 µM (inactive) | GI50 (ACHN): 26.8 µM (inactive) | GI50 (BT-549): > 100 µM (inactive) | GI50 (CAKI-1): > 100 µM (inactive) | GI50 (CCRF-CEM): > 100 µM (inactive) | GI50 (COLO 205): > 100 µM (inactive) | GI50 (DU-145): > 100 µM (inactive) | GI50 (EKVX): > 100 µM (inactive) | GI50 (HCT-116): > 100 µM (inactive) | GI50 (HCT-15): > 100 µM | GI50 (HOP-62): 29.6 µM (inactive) | GI50 (HOP-92): > 100 µM (inactive) | GI50 (HT-29): > 100 µM (inactive) | GI50 (Hs-578T): 33.7 µM (inactive) | GI50 (IGROV-1): > 100 µM (inactive) | GI50 (K562): > 100 µM (inactive) | GI50 (KM12): > 100 µM (inactive) | GI50 (LOX IMVI): > 100 µM (inactive) | GI50 (M14): > 100 µM (inactive) | GI50 (MDA-MB-231): 94.4 µM (inactive) | GI50 (MDA-MB-435): > 100 µM (inactive) | GI50 (MDA-N): > 100 µM (inactive) | GI50 (MOLT-4): > 100 µM (inactive) | GI50 (Malme-3M): > 100 µM (inactive) | GI50 (NCI-H226): > 100 µM (inactive) | GI50 (NCI-H23): > 100 µM (inactive) | GI50 (NCI-H522): > 100 µM (inactive) | GI50 (NCI/ADR-RES): > 100 µM (inactive) | GI50 (OVCAR-3): > 100 µM (inactive) | GI50 (OVCAR-4): 43.2 µM (inactive) | GI50 (OVCAR-5): > 100 µM (inactive) | GI50 (OVCAR-8): 40.2 µM (inactive) | GI50 (PC-3): > 100 µM (inactive) | GI50 (RPMI-8226): > 100 µM (inactive) | GI50 (RXF 393): > 100 µM (inactive) | GI50 (SF-268): 45.9 µM (inactive) | GI50 (SF-295): 81.7 µM (inactive) | GI50 (SK-MEL-28): > 100 µM (inactive) | GI50 (SK-MEL-2): > 100 µM (inactive) | GI50 (SK-MEL-5): > 100 µM (inactive) | GI50 (SK-OV-3): > 100 µM (inactive) | GI50 (SN12C): > 100 µM (inactive) | GI50 (SNB-19): > 100 µM (inactive) | GI50 (SNB-75): 38.6 µM (inactive) | GI50 (SR): 20.9 µM (inactive) | GI50 (SW-620): > 100 µM (inactive) | GI50 (T47D): > 100 µM (inactive) | GI50 (TK-10): > 100 µM (inactive) | GI50 (U-251): 42.7 µM (inactive) | GI50 (UACC-257): > 100 µM (inactive) | GI50 (UACC-62): > 100 µM (inactive) | GI50 (UO-31): > 100 µM (inactive)

COc1ccc(-n2c(N)c(C#N)c(C#N)c2-c2ccccc2)cc1
GI50 (786-0): 45.3 µM (inactive) | GI50 (A498): > 100 µM (inactive) | GI50 (A549): > 100 µM (inactive) | GI50 (ACHN): > 100 µM (inactive) | GI50 (BT-549): 19.1 µM (inactive) | GI50 (CAKI-1): > 100 µM (inactive) | GI50 (CCRF-CEM): > 100 µM (inactive) | GI50 (COLO 205): > 100 µM (inactive) | GI50 (DU-145): > 100 µM (inactive) | GI50 (EKVX): > 100 µM (inactive) | GI50 (HCC 2998): > 100 µM (inactive) | GI50 (HCT-116): > 100 µM (inactive) | GI50 (HCT-15): > 100 µM | GI50 (HL-60): > 100 µM (inactive) | GI50 (HOP-62): 87.7 µM (inactive) | GI50 (HOP-92): 10.1 µM (inactive) | GI50 (HT-29): > 100 µM (inactive) | GI50 (Hs-578T): 6.58 µM (inactive) | GI50 (IGROV-1): 24.2 µM (inactive) | GI50 (KM12): > 100 µM (inactive) | GI50 (LOX IMVI): > 100 µM (inactive) | GI50 (M14): > 100 µM (inactive) | GI50 (MCF7): > 100 µM (inactive) | GI50 (MDA-MB-231): > 100 µM (inactive) | GI50 (MDA-MB-435): > 100 µM (inactive) | GI50 (MOLT-4): > 100 µM (inactive) | GI50 (Malme-3M): > 100 µM (inactive) | GI50 (NCI-H226): 13.8 µM (inactive) | GI50 (NCI-H23): > 100 µM (inactive) | GI50 (NCI-H522): 59.4 µM (inactive) | GI50 (NCI/ADR-RES): > 100 µM (inactive) | GI50 (OVCAR-3): > 100 µM (inactive) | GI50 (OVCAR-4): 15.1 µM (inactive) | GI50 (OVCAR-5): > 100 µM (inactive) | GI50 (OVCAR-8): 84.7 µM (inactive) | GI50 (PC-3): 19.8 µM (inactive) | GI50 (RPMI-8226): > 100 µM (inactive) | GI50 (RXF 393): 23.8 µM (inactive) | GI50 (SF-268): 31.1 µM (inactive) | GI50 (SF-295): 31.8 µM (inactive) | GI50 (SF-539): 11 µM (inactive) | GI50 (SK-MEL-2): 22.8 µM (inactive) | GI50 (SK-MEL-5): 51.6 µM (inactive) | GI50 (SK-OV-3): > 100 µM (inactive) | GI50 (SN12C): > 100 µM (inactive) | GI50 (SNB-19): 29.6 µM (inactive) | GI50 (SNB-75): 2.74 µM (inactive) | GI50 (SR): > 100 µM (inactive) | GI50 (SW-620): > 100 µM (inactive) | GI50 (T47D): 4.57 µM (inactive) | GI50 (TK-10): > 100 µM (inactive) | GI50 (U-251): 30.1 µM (inactive) | GI50 (UACC-257): > 100 µM (inactive) | GI50 (UACC-62): 10.7 µM (inactive) | GI50 (UO-31): > 100 µM (inactive)
